Test results: patent US7109360B1, “16-hydroxyestratrienes as selectively active estrogens” (priority 1999, dated 2006)

Key:
[1] = system: estrogen receptor preparations of rat prostates; assay: Competitive 3H-estradiol binding to estrogen receptor of rat prostate cytosol; conditions: for prost. ER/uterus ER: ratio RBA prostate-ER / RBA uterus-ER
[2] = system: hERβ; conditions: Table 1; estradiol = 100; cited from Kuiper et al. (1996); cited from earlier work
[3] = target: T1, human estrogen receptor α (Homo sapiens, UniProt P03372); assay: Binding to human estrogen receptor α produced by Baculovirus/SF-9 expression system; conditions: Table 2; human ERα from Baculovirus/SF-9, estradiol = 100
T1 construct: made in house; host or cells: Baculovirus/SF-9
T1 sequence (P03372 1-595): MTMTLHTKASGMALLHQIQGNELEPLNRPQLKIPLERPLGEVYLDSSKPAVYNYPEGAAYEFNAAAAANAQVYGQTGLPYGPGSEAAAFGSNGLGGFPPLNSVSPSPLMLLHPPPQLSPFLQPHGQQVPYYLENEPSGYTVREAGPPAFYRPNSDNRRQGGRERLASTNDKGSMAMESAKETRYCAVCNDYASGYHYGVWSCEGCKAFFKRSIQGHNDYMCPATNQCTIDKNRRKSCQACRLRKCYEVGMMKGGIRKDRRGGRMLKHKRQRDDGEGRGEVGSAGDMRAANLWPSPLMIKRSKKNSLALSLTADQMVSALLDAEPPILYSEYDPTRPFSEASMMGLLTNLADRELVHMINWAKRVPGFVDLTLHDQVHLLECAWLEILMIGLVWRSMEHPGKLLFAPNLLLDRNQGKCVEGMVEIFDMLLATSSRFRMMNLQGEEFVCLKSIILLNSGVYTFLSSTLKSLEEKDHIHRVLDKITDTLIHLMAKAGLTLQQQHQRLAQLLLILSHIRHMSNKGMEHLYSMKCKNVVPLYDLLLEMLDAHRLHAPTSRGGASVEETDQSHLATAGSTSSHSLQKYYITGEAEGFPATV

[4] = target: T2, human estrogen receptor β (Homo sapiens, UniProt Q92731); assay: Binding to human estrogen receptor β produced by Baculovirus/SF-9 expression system; conditions: for hERβ RBA / ERβ/ERα: Table 2; for hERβ RBA: human ERβ from Baculovirus/SF-9, estradiol = 100; for ERβ/ERα: quotient RBA ERβ / RBA ERα
T2 construct: made in house; host or cells: Baculovirus/SF-9
T2 sequence (Q92731 whole entry): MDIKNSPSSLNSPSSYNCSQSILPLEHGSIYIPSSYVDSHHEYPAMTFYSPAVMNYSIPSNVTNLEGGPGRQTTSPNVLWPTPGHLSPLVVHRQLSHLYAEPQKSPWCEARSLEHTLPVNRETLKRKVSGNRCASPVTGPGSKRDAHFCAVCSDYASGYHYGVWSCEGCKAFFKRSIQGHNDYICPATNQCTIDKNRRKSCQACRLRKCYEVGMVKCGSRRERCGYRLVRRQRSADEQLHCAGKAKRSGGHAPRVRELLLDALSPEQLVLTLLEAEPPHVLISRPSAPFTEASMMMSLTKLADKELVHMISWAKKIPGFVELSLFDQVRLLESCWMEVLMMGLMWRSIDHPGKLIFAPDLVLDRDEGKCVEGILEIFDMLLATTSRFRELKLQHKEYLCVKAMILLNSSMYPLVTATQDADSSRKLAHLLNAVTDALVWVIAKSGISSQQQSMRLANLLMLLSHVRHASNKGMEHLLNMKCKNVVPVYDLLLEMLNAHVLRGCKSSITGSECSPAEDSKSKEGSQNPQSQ

[5] = system: hERβ; assay: Relative binding affinity to hERβ, cited from Kuiper et al.; parameters: species or system human; conditions: Table 1; quotient of cited RBA hERβ / hERα
Description: In this case, it is assumed that ERβ predominates in the rat prostates over ERα, and ERα predominates in rat uteri over ERβ.

[6] = target: T3, estrogen receptor preparations of rat uteri (Rattus norvegicus, UniProt P06211); assay: Competitive 3H-estradiol binding to estrogen receptor of rat uterus cytosol
T3 construct: The preparation of rat uterus cytosol, as well as the receptor test with the ER-containing cytosol; from tissue; host or cells: rat uterus cytosol
T3 sequence (P06211 1-600): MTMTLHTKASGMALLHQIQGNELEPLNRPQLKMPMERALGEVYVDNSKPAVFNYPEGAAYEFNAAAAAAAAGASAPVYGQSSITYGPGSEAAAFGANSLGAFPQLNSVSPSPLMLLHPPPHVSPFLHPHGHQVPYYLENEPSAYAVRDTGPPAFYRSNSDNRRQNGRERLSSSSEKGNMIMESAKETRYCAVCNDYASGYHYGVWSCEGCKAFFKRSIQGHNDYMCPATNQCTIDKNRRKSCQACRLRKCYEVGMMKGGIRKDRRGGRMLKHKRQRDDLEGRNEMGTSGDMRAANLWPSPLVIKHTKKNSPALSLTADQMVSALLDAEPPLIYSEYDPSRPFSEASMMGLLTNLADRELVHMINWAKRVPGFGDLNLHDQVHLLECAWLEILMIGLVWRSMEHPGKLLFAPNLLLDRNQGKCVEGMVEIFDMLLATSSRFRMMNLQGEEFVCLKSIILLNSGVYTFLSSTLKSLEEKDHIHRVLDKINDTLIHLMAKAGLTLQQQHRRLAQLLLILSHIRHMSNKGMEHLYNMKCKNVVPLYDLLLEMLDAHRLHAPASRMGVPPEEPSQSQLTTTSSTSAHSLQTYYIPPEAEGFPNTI

[7] = system: trabecular bone density in ovariectomized female rats; assay: Bone studies: bone density of proximal tibia (pQCT) in ovariectomized rats; type: in vivo, rat; conditions: s.c. once daily for 28 days, relative to bone mass loss of untreated ovariectomized vs sham-operated animals
Protocol: (§1) Three-month-old female rats are ovariectomized and treated once daily with the test compound immediately after the operation for 28 days. The administration is carried out subcutaneously in arachis oil/ethanol. The animals are sacrificed on the day after the last administration, and tibia as well as uteri are removed. The uteri are weighed, fixed and worked up for histological studies. The determination of bone density is carried out ex vivo on prepared long bones by means of pQCT (quantitative computer tomography). The measurements are made at a distance of 4–6 mm from the ball of the joint of the proximal tibia.
The ovariectomy reduces the density of the trabecular bone in the measured area by about 400 mg of Ca^2+/cm^3 to about 300 mg of Ca^2+/cm^3. By treatment with a compound of general formula I according to this invention, the degradation of the bone density is prevented or inhibited. The bone density in the proximal tibia was measured.
(§2) Estra-1,3,5(10)-triene-3,16α-diol reflects this in vivo in the greatly different amounts, which produce a 50% bone protection [3 μg/animal] or a 50% uterus stimulation [30 μg/animal], relative to the bone mass loss, which can be measured in ovariectomized, untreated female rats 28 days after the ovariectomy unlike in intact animals that are subjected to sham operations.

[8] = system: uterus of ovariectomized female rats; assay: Bone studies: uterus stimulation (uterus weight) in ovariectomized rats; type: in vivo, rat; conditions: s.c. once daily for 28 days
Protocol: as §1, §2

[9] = Table 1, 3H-estradiol as ligand, estradiol = 100

| SMILES | Rat prost. ER (RBA) [1, 9] | hERα RBA [3] | hERβ RBA [4] | ERβ/ERα [4] | Rat uterus ER (RBA) ([6]; Table 2, estradiol = 100) | Rat prost. ER (RBA) ([1]; Table 2, estradiol = 100) | prost. ER/uterus ER ([1]; Table 2) | further results |
| --- | --- | --- | --- | --- | --- | --- | --- | --- |
| C[C@]12CC[C@@H]3c4ccc(O)cc4CC[C@H]3[C@@H]1CC[C@H]2O [17α-Estradiol] | 1.3 | – | – | – | – | – | – | – |
| C[C@]12CC[C@@H]3c4ccc(O)cc4CC[C@H]3[C@@H]1C[C@@H](O)[C@@H]2O [Estriol] | – | – | – | – | – | – | – | hERβ RBA [2]: 21 |
| C[C@]12CC[C@H]3[C@@H](CC=C4C[C@@H](O)CC[C@@]43C)[C@@H]1CC[C@@H]2O [5-Androstenediol] | 5 | 1.7 | 10 | 6 | 0.1 | 5 | 50 | hERβ RBA [2]: 17; ERβ/ERα [5]: 3; Rat uterus ER (RBA) [6, 9]: 0.1; prost. ER/uterus ER ([1]; Table 1): 50 |
| C[C@]12CC[C@@H]3c4ccc(O)cc4CC[C@H]3[C@@H]1C[C@@H](O)C2=O [16α-hydroxyestrone] | – | – | – | – | – | – | – | binding to human estrogen receptor β relative to human estrogen receptor α [4]: three times better; RBA value on rat prostate estrogen receptor relative to RBA value on rat uterus estrogen receptor [1]: five times better |
| C[C@]12CC[C@@H]3c4ccc(O)cc4CC[C@H]3[C@@H]1C[C@@H](O)C2 [16α-Estradiol, estra-1,3,5(10)-triene-3,16α-diol] | – | – | – | – | – | – | – | 50% bone protection [7]: 3 μg/animal; Receptor binding ERβ (RBA)/ERα (RBA) ([4]; Table 3): 6; 50% uterus stimulation [8]: 30 μg/animal; Rat uterus ER (RBA) ([6]; Table 3): 9; Rat prost. ER (RBA) ([1]; Table 3): 50 |
| C#C[C@@]1(O)C[C@@H]2CC[C@@H]3[C@H](CC[C@@]4(C)[C@H]3CC[C@@]4(O)C#C)[C@@]2(C)C1 [Anordiol] | – | 15 | 0.2 | 0.01 | 6.6 | <0.01 | <0.01 | – |
| C[C@]12CC[C@@H]3c4ccc(O)cc4CC[C@H]3[C@@]13CC[C@]2(O)[C@H](O)C3 [Cyclotriol] | – | 36 | 10 | 0.3 | 50 | 17 | 0.3 | – |
| O=c1oc2cc(O)ccc2c2oc3cc(O)ccc3c12 [Coumestrol] | – | – | 100 | – | – | – | – | – |
| O=c1c(-c2ccc(O)cc2)coc2cc(O)cc(O)c12 [Genisteine] | 10 | – | – | – | – | 10 | – | – |
| O=C(c1ccc(OCCN2CCCCC2)cc1)c1c(-c2ccc(O)cc2)sc2cc(O)ccc12 [Raloxifene] | – | – | 9 | – | – | 1.5 | – | – |
